The values that follow are results of earlier work, collected in patent US6558704B1, “Process for preparing pellets containing up to 90 wt.% of a pharmaceutical active ingredient” (Gruenenthal GmbH, priority 1999, dated 2003).

Counter-ions that a name gives are not always drawn.

Turning to `CN(C)CCCN1c2ccccc2Sc2ccc(Cl)cc21` [chlorpromazine hydrochloride], the solubility in water was 2500 mg/mL.
Regarding `Cc1c(N(C)CS(=O)(=O)[O-])c(=O)n(-c2ccccc2)n1C.[Na+]` [metamizol-Na], the solubility in water was more than 1000 mg/mL.
